Reference: the OPERA property sets (Mansouri et al. 2018)

Conditions: for log10 biotransformation half-life (days) / log10 BCF: fish

SMILES	melting point [°C]	boiling point [°C]	also measured
CCOC(=O)NNC(=O)OCC	135		
CCCOCC	-128	63.2	log10 vapour pressure (mmHg): 2.26
CCCCCCCCCCCCCS		291	log10 vapour pressure (mmHg): -3.16
Cc1ccc(Br)cc1	28.5	184	log10 Henry constant (atm·m³/mol): -2.63; log10 vapour pressure (mmHg): 0.0607
Clc1ccc(Cl)c(-c2c(Cl)ccc(Cl)c2Cl)c1			log10 Henry constant (atm·m³/mol): -3.92; log10 Koa: 8.79; log10 Koc (L/kg): 5.55
O=C(O)CCCCc1ccccc1	57.5		
Nc1ccn([C@@H]2O[C@H](CO)[C@@H](O)[C@@H]2O)c(=O)n1	212		
CC(Br)CCl (stereo unspecified)		118	
CCC(C)ON=O (stereo unspecified)		68.5	
CC1=CCC(O)(C(C)C)CC1 (stereo unspecified)		209	
COc1c(Cl)ccc(Cl)c1C(=O)O	115		log10 Koc (L/kg): 1.5; log10 vapour pressure (mmHg): -4.47
CC(C)C(=O)Cl	-90	92	
CCCCCOC(=O)CCC(=O)OCCCCC	-10.8		
COc1cc(O)c2c(=O)c(-c3ccc(O)cc3)coc2c1	240		
NCCc1ccc(Br)cc1			ready biodegradability: readily biodegradable
CCOC(=O)C(OCC)OCC		199	
CCCC(=O)c1ccccc1O	10		
Clc1ccc(Cl)c(-c2c(Cl)cc(Cl)c(Cl)c2Cl)c1			log10 biotransformation half-life (days): 2.23
CCC(C)(C)C(=O)O[C@H]1C[C@@H](C)C=C2C=C[C@H](C)[C@H](CC[C@@H]3C[C@@H](O)CC(=O)O3)[C@H]21	136		
CC(C)N	-95.1	31.7	log10 vapour pressure (mmHg): 2.76
O=C(O)c1ccccc1	122	249	log10 Koc (L/kg): 1.5; log10 vapour pressure (mmHg): -3.15; ready biodegradability: readily biodegradable
COc1cccc2c(=O)c3c(n(C)c12)O[C@@H](C(C)C)C3	119		
C[C@@H]1CCC[C@H](C)N1		127	ready biodegradability: not readily biodegradable; log10 BCF: 0.7

SMILES	melting point [°C]	boiling point [°C]	also measured
COc1cc2c(cc1OC)C(=O)NCC2	175		
c1ccc2c(c1)CCN2		229	
CCc1cccnc1	-76.9	165	log10 Henry constant (atm·m³/mol): -4.98; log10 vapour pressure (mmHg): 0.403
Cc1ccc(C)nc1	-16	157	log10 Henry constant (atm·m³/mol): -5.06; log10 vapour pressure (mmHg): 0.526
CCCCCCCCCCCCCCCCCC(=O)NCCNC(=O)CCCCCCCCCCCCCCCCC			ready biodegradability: not readily biodegradable
COP(=S)(OC)Oc1ccc([N+](=O)[O-])c(Cl)c1	21		log10 vapour pressure (mmHg): -5.4; log10 BCF: 1.55; log10 biotransformation half-life (days): -0.47
CCC1CCCCN1C(=O)COC(=O)c1ccccc1 (stereo unspecified)	54.5		
CC(Cl)C(Cl)(Cl)Cl (stereo unspecified)	-64	152	
c1ccc2cnncc2c1	90.5	316	
CC(=O)Oc1cc(C(C)C)ccc1C		246	
O=[N+]([O-])c1ccc(N=Nc2ccc(O)cc2O)cc1	200		
CC(=O)c1ccc(Cl)cc1Cl	33.5		
Clc1ccccc1-c1ccccc1Cl	61.5		log10 Henry constant (atm·m³/mol): -3.64; log10 Koa: 7.18; log10 Koc (L/kg): 3.92; log10 vapour pressure (mmHg): -2.56; ready biodegradability: not readily biodegradable
CCCCCCC(C)Nc1ccc(Nc2ccccc2)cc1 (stereo unspecified)			ready biodegradability: not readily biodegradable
Nc1ncc2ncn(COCCO)c2n1	189		
C[N+]1(CCC(C(N)=O)(c2ccccc2)c2ccccc2)CCCCC1.[Br-]	178		
N#CC(c1ccccc1)c1ccccc1	74.3		ready biodegradability: not readily biodegradable
c1ccc(C(c2ccccc2)(c2ccccc2)c2ccccc2)cc1	282	431	
CCCCC(O)CCCC		193	
O=Nc1c(O)ccc2ccccc12	110		
CCN(CC)CCOC(=O)C(O)(c1ccccc1)c1ccccc1	51		
CC(C)COC(=O)c1ccccc1C(=O)OCC(C)C		296	log10 Koc (L/kg): 3.14; ready biodegradability: not readily biodegradable
CCCC(CC)CC(C)C (stereo unspecified)		158	

SMILES	melting point [°C]	boiling point [°C]	also measured
CNC(=O)Nc1cccc(Cl)c1			log10 Koc (L/kg): 1.93
BrCCCCOc1ccccc1	41		
NS(=O)(=O)c1ccc(SCCO)c(F)c1	110		
OCc1ccccc1O	87		ready biodegradability: not readily biodegradable
C/C=C/C=O	-76.2	103	log10 Henry constant (atm·m³/mol): -4.84; log10 vapour pressure (mmHg): 1.48
CC(C)=CC(=O)Cl		146	
CC1(C)CC1	-109	20.6	
COCCO		124	log10 Henry constant (atm·m³/mol): -6.48; log10 vapour pressure (mmHg): 0.978; ready biodegradability: readily biodegradable
CC1CCC1	-162	36.3	log10 vapour pressure (mmHg): 3.17
CC(=O)O[Si](C)(OC(C)=O)OC(C)=O	40.5		
CCCC(=O)c1c(C)cc(C)c(C2CC(=O)C(C(CC)=NOCC)=C(O)C2)c1C (stereo unspecified)	80.8		log10 vapour pressure (mmHg): -8.12
CCNCCN(C)C		134	
Brc1ccc(Oc2ccc(Br)c(Br)c2)c(Br)c1			log10 BCF: 6.05
Fc1cc(F)nc(F)n1		98	
CCCCCCn1c(=O)c2c(ncn2C)n(C)c1=O	82.5		
CCC(=O)c1ccc(C)cc1	7.2	236	log10 vapour pressure (mmHg): -1.03
CCCCCCCO	-34	176	log10 Henry constant (atm·m³/mol): -4.73; log10 Koc (L/kg): 1.14; log10 vapour pressure (mmHg): -0.665; ready biodegradability: readily biodegradable
CNc1ccccc1C		208	ready biodegradability: not readily biodegradable; log10 BCF: 0.95; log10 biotransformation half-life (days): -0.74
CC(Cc1ccc(O)c(O)c1)C(C)Cc1ccc(O)c(O)c1 (stereo unspecified)	186		
CCCCCCCCCOCCCCCCCCC			log10 vapour pressure (mmHg): -4.28
CC(C)c1ccccc1C(C)C	-57	204	log10 vapour pressure (mmHg): -0.441; ready biodegradability: not readily biodegradable; log10 BCF: 2.14
O=CC=CC=Cc1ccccc1	42.5		
CCCCCOC(=O)COc1cc(N2C(=O)C3=C(CCCC3)C2=O)c(F)cc1Cl	89		

SMILES	melting point [°C]	boiling point [°C]	also measured
C=C[C@@]1(C)CC[C@H]2C(=CC[C@@H]3[C@]2(C)CCC[C@@]3(C)C(=O)O)C1	160		log10 BCF: 1.63
CCOC(=O)CCl	-21	144	log10 vapour pressure (mmHg): 0.687
Cc1ccc(C(C)C)c(O)c1C(=O)O	127		
CC(C)(C)SC(C)(C)C	-9	149	
Clc1ccccc1C1CO1 (stereo unspecified)			ready biodegradability: not readily biodegradable
CC(C)[C@H](C(=O)OC(C#N)c1cccc(Oc2ccccc2)c1)c1ccc(OC(F)F)cc1 (stereo partly specified)			log10 Koc (L/kg): 5; log10 vapour pressure (mmHg): -8.06
N#Cc1ccccc1Cl	46.3	232	ready biodegradability: not readily biodegradable
COS(=O)(=O)c1ccc(C)cc1	28.5	292	
COc1ccccc1NC(N)=S	156		
CN1CCCN=C1/C=C/c1cccs1	178		
Nc1cnn(-c2ccccc2)c(=O)c1Br	224		
O=COCc1ccccc1		203	
CC(CCCl)OCCCl (stereo unspecified)		195	
CCC(N)Cc1c[nH]c2ccccc12 (stereo unspecified)	97		
CC1=CCC(=O)O1	18		
O=C1CCc2ccccc21	42	243	
CCC(=O)N(C)C	-45	174	
CC(C)=CCl		68	
COC(=O)Cn1ccnc1[N+](=O)[O-]	96		
CCCCOCCOC(C)=O	-63	192	log10 Henry constant (atm·m³/mol): -5.26; log10 vapour pressure (mmHg): -0.426
N[C@H](CCS)C(=O)O (racemic)	226		
CC(C)CC(C)C(C)C (stereo unspecified)	-128	131	log10 biodegradation half-life (days): 0.903; log10 vapour pressure (mmHg): 1.07
